{"source": "ChEMBL document CHEMBL5360573", "about": "“Discovery of novel tryptamine derivatives as GluN2B subunit-containing NMDA receptor antagonists via pharmacophore-merging strategy with orally available therapeutic effect of cerebral ischemia” (Eur J Med Chem, 2023)", "key": {"SH-SY5Y [1]": {"tested_on": "SH-SY5Y", "experiment": "Neuroprotective activity against NMDA-induced cell injury in human SH-SY5Y cells assessed as cell viability at 0.5 uM incubated for 6 hrs followed by NMDA treatment for 0.5 hrs and subsequent replacement of fresh medium without compounds by MTT assay relative to control", "type": "functional", "details": "time 6.5 hrs, read-out: Activity"}, "SH-SY5Y [2]": {"tested_on": "SH-SY5Y", "experiment": "Neuroprotective activity against NMDA-induced cell injury in human SH-SY5Y cells assessed as cell viability at 5 uM incubated for 6 hrs followed by NMDA treatment for 0.5 hrs and subsequent replacement of fresh medium without compounds by MTT assay relative to control", "type": "functional", "details": "time 6.5 hrs, read-out: Activity"}, "SH-SY5Y [3]": {"tested_on": "SH-SY5Y", "experiment": "Neuroprotective activity against NMDA-induced cell injury in human SH-SY5Y cells assessed as cell viability at 0.05 uM incubated for 6 hrs followed by NMDA treatment for 0.5 hrs and subsequent replacement of fresh medium without compounds by MTT assay relative to control", "type": "functional", "details": "time 6.5 hrs, read-out: Activity"}, "[4]": {"experiment": "Metabolic stability in human plasma assessed as compound remaining at 2 uM measured immediately by LC-MS/MS analysis", "type": "ADME, cell-free", "details": "read-out: Stability"}, "[5]": {"experiment": "Metabolic stability in human plasma assessed as compound remaining at 2 uM measured after 30 mins by LC-MS/MS analysis", "type": "ADME, cell-free", "details": "read-out: Stability"}, "[6]": {"experiment": "Metabolic stability in human plasma assessed as compound remaining at 2 uM measured after 60 mins by LC-MS/MS analysis", "type": "ADME, cell-free", "details": "read-out: Stability"}, "[7]": {"experiment": "Metabolic stability in human plasma assessed as compound remaining at 2 uM measured after 10 mins by LC-MS/MS analysis", "type": "ADME, cell-free", "details": "read-out: Stability"}, "[8]": {"experiment": "Metabolic stability in human plasma assessed as half life at 2 uM by LC-MS/MS analysis", "type": "ADME, cell-free"}, "[9]": {"target": "Glutamate receptor ionotropic, NMDA 2B (Homo sapiens) (UniProt Q13224)", "sequence (Q13224 27-1484 limits assumed)": "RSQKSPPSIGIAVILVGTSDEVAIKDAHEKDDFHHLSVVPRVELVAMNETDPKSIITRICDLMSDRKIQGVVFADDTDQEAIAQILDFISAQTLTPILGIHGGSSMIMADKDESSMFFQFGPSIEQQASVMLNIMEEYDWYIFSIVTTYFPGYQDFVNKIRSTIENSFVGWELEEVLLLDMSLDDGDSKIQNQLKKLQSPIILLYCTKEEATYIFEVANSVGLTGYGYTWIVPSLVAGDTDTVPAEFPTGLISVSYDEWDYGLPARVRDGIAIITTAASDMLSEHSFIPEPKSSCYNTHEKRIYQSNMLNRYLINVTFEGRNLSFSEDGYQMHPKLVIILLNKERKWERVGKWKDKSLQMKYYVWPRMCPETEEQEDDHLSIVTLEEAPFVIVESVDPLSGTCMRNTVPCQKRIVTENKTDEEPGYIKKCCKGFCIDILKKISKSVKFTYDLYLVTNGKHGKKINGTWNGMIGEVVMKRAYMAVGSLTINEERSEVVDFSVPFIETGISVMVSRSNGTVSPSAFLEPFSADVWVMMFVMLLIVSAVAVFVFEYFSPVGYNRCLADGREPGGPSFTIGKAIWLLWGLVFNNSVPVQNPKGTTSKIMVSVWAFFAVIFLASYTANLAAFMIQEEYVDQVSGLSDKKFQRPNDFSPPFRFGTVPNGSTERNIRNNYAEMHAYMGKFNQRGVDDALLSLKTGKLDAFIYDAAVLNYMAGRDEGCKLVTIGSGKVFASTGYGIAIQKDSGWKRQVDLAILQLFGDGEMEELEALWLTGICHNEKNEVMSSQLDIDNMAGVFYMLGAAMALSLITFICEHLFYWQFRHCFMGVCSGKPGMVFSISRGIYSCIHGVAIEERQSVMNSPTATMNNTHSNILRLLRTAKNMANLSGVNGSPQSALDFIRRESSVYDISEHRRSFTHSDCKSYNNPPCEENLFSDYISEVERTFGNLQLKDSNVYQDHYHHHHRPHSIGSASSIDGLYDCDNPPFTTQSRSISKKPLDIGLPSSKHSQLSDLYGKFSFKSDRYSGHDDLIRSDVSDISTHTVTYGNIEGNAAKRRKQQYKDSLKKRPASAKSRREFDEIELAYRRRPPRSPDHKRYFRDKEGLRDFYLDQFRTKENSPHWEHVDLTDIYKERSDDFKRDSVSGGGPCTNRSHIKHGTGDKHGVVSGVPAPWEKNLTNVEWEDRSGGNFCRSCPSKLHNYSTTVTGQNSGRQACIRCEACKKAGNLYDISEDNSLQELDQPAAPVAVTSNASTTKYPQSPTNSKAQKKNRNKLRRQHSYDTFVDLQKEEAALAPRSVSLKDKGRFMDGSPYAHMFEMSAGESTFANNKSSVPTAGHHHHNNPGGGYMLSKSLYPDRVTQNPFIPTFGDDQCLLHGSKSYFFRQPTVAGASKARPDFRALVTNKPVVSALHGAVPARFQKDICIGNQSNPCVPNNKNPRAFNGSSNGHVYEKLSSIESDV", "experiment": "Antagonist activity against GluN2B NMDAR in human SH-SY5Y cells assessed as reduction in NMDA-induced intracellular influx at 5 uM incubated for 6 hrs followed by replacement of fresh medium without compounds and subsequent NMDA treatment by Fluo-4AM dye based calcium mobilization assay", "type": "cell-based", "details": "filed as antagonist"}, "[10]": {"experiment": "Metabolic stability in human plasma assessed as compound remaining at 2 uM measured after 120 mins by LC-MS/MS analysis", "type": "ADME, cell-free", "details": "read-out: Stability"}}, "note": "Activity calls are given as the source filed them. The rule behind the calls is not given here."}
{"smiles": "O=C(/C=C/c1ccc(O)cc1)NCCc1cn(CCCc2ccccc2)c2ccccc12", "values": [{"measurement": "viability at 0.5 µM", "setting": "SH-SY5Y [1]", "result": 19.3, "unit": "%"}, {"measurement": "viability at 5 µM", "setting": "SH-SY5Y [2]", "result": 12.5, "unit": "%"}, {"measurement": "viability at 0.05 µM", "setting": "SH-SY5Y [3]", "result": 20.1, "unit": "%"}]}
{"smiles": "CC(C)Cn1cc(CCNC(=O)/C=C/c2ccc(O)cc2)c2ccccc21", "values": [{"measurement": "viability at 0.5 µM", "setting": "SH-SY5Y [1]", "result": 15.7, "unit": "%"}, {"measurement": "viability at 5 µM", "setting": "SH-SY5Y [2]", "result": 14.4, "unit": "%"}, {"measurement": "viability at 0.05 µM", "setting": "SH-SY5Y [3]", "result": 24.9, "unit": "%"}]}
{"smiles": "O=C(/C=C/c1ccc(O)cc1)NCCc1cn(Cc2cccc(Cl)c2)c2ccccc12", "values": [{"measurement": "viability at 0.5 µM", "setting": "SH-SY5Y [1]", "result": 38.8, "unit": "%"}, {"measurement": "viability at 5 µM", "setting": "SH-SY5Y [2]", "result": 25.2, "unit": "%"}, {"measurement": "viability at 0.05 µM", "setting": "SH-SY5Y [3]", "result": 32.2, "unit": "%"}]}
{"smiles": "COc1ccc(Cn2cc(CCNC(=O)/C=C/c3ccc(O)cc3)c3ccccc32)cc1", "values": [{"measurement": "viability at 0.5 µM", "setting": "SH-SY5Y [1]", "result": 24.8, "unit": "%"}, {"measurement": "viability at 5 µM", "setting": "SH-SY5Y [2]", "result": 30.9, "unit": "%"}, {"measurement": "viability at 0.05 µM", "setting": "SH-SY5Y [3]", "result": 18.6, "unit": "%"}]}
{"smiles": "O=C(/C=C/c1ccc(O)cc1)NCCc1cn(Cc2ccc(Br)cc2)c2ccccc12", "values": [{"measurement": "viability at 0.5 µM", "setting": "SH-SY5Y [1]", "result": 36.1, "unit": "%"}, {"measurement": "viability at 5 µM", "setting": "SH-SY5Y [2]", "result": 25.5, "unit": "%"}, {"measurement": "viability at 0.05 µM", "setting": "SH-SY5Y [3]", "result": 42.6, "unit": "%"}]}
{"smiles": "O=C(/C=C/c1ccc(O)cc1)NCCc1cn(CCc2ccccc2)c2ccccc12", "values": [{"measurement": "viability at 0.5 µM", "setting": "SH-SY5Y [1]", "result": 10.1, "unit": "%"}, {"measurement": "viability at 5 µM", "setting": "SH-SY5Y [2]", "result": 8, "unit": "%"}, {"measurement": "viability at 0.05 µM", "setting": "SH-SY5Y [3]", "result": 25.9, "unit": "%"}]}
{"smiles": "O=C(NCCc1cn(Cc2ccccc2)c2ccccc12)c1ccc(O)c(O)c1", "values": [{"measurement": "viability at 0.5 µM", "setting": "SH-SY5Y [1]", "result": 32.1, "unit": "%"}, {"measurement": "viability at 5 µM", "setting": "SH-SY5Y [2]", "result": 44.9, "unit": "%"}, {"measurement": "viability at 0.05 µM", "setting": "SH-SY5Y [3]", "result": 29.4, "unit": "%"}]}
{"smiles": "CC(C(O)c1ccc(O)cc1)N1CCC(Cc2ccccc2)CC1", "note": "(stereo unspecified) [IFENPRODIL]", "values": [{"measurement": "viability at 0.5 µM", "setting": "SH-SY5Y [1]", "result": 40.4, "unit": "%"}, {"measurement": "remaining at 0 min, 2 µM", "setting": "[4]", "result": 100, "unit": "%"}, {"measurement": "remaining at 0.5 h, 2 µM", "setting": "[5]", "result": 89.6, "unit": "%"}, {"measurement": "remaining at 1 h, 2 µM", "setting": "[6]", "result": 93.5, "unit": "%"}, {"measurement": "remaining at 10 min, 2 µM", "setting": "[7]", "result": 97, "unit": "%"}, {"measurement": "viability at 5 µM", "setting": "SH-SY5Y [2]", "result": 41, "unit": "%"}, {"measurement": "half-life at 2 µM", "setting": "[8]", "result": "> 289", "unit": "min"}, {"measurement": "Activity", "setting": "[9]", "result": "Active"}, {"measurement": "viability at 0.05 µM", "setting": "SH-SY5Y [3]", "result": 29.4, "unit": "%"}, {"measurement": "remaining at 2 h, 2 µM", "setting": "[10]", "result": 91.3, "unit": "%"}]}
{"smiles": "O=C(/C=C/c1ccc(O)cc1)NCCc1cn(Cc2ccccc2Cl)c2ccccc12", "values": [{"measurement": "viability at 0.5 µM", "setting": "SH-SY5Y [1]", "result": 10.1, "unit": "%"}, {"measurement": "viability at 5 µM", "setting": "SH-SY5Y [2]", "result": 5.9, "unit": "%"}, {"measurement": "viability at 0.05 µM", "setting": "SH-SY5Y [3]", "result": 13.6, "unit": "%"}]}
{"smiles": "O=C(Cc1ccc(O)cc1)NCCc1cn(Cc2ccccc2)c2ccccc12", "values": [{"measurement": "viability at 0.5 µM", "setting": "SH-SY5Y [1]", "result": 42.2, "unit": "%"}, {"measurement": "viability at 5 µM", "setting": "SH-SY5Y [2]", "result": 41, "unit": "%"}, {"measurement": "viability at 0.05 µM", "setting": "SH-SY5Y [3]", "result": 21.1, "unit": "%"}]}
{"smiles": "O=C(/C=C/c1ccc(O)cc1)NCCc1cn(Cc2ccc(Cl)cc2)c2ccccc12", "values": [{"measurement": "viability at 0.5 µM", "setting": "SH-SY5Y [1]", "result": 22.5, "unit": "%"}, {"measurement": "viability at 5 µM", "setting": "SH-SY5Y [2]", "result": 21.7, "unit": "%"}, {"measurement": "viability at 0.05 µM", "setting": "SH-SY5Y [3]", "result": 31.9, "unit": "%"}]}
{"smiles": "CCn1cc(CCNC(=O)/C=C/c2ccc(O)cc2)c2ccccc21", "values": [{"measurement": "viability at 0.5 µM", "setting": "SH-SY5Y [1]", "result": 22.4, "unit": "%"}, {"measurement": "viability at 5 µM", "setting": "SH-SY5Y [2]", "result": 19.9, "unit": "%"}, {"measurement": "viability at 0.05 µM", "setting": "SH-SY5Y [3]", "result": 19.9, "unit": "%"}]}
{"smiles": "O=C(/C=C/c1ccc(O)cc1)NCCc1cn(Cc2ccccc2F)c2ccccc12", "values": [{"measurement": "viability at 0.5 µM", "setting": "SH-SY5Y [1]", "result": 32.4, "unit": "%"}, {"measurement": "viability at 5 µM", "setting": "SH-SY5Y [2]", "result": 24.7, "unit": "%"}, {"measurement": "viability at 0.05 µM", "setting": "SH-SY5Y [3]", "result": 32.4, "unit": "%"}]}
